# In patent publication US9914723B2, “Small molecule inhibitors of Mcl-1 and uses thereof” (THE REGENTS OF THE UNIVERSITY OF MICHIGAN, priority 2012, dated 2018):
# Columns and labels:
# Bcl-xL = Bcl-xL (Homo sapiens, UniProt Q07817); test: Binding affinity against Bcl-2 family anti-apoptotic proteins: Bcl-xL
# Mcl-1 [1] = target: T1, Mcl-1 (Homo sapiens, UniProt Q07820); test: Binding affinity against Bcl-2 family anti-apoptotic proteins: Mcl-1
# HL-60 = test: Cellular activity against leukemia human tumor cell lines: HL-60; type: cell-based; conditions: AML-derived cell line
# Description: (§1) Acute myeloid leukemia (AML) frequently relapses after initial treatment. Drug resistance in AML has been attributed to high levels of the anti-apoptotic Bcl-2 family proteins. Indeed, Mcl-1 is essential for development and survival of acute myelogenous leukemia cells. Therefore the cellular activity of Mcl-1 inhibitors against AML human cancer cell lines was tested. Blockade of Mcl-1 by these inhibitors (see Table 3) killed AML-derived cell lines, HL-60 and MV4-11, but had less impact on the human CML-derived (K562) cell line.
# Bcl-w = target: T2, Bcl-w (Homo sapiens, UniProt Q92843); test: Binding affinity against Bcl-2 family anti-apoptotic proteins: Bcl-w
# T2 sequence (Q92843 1-193): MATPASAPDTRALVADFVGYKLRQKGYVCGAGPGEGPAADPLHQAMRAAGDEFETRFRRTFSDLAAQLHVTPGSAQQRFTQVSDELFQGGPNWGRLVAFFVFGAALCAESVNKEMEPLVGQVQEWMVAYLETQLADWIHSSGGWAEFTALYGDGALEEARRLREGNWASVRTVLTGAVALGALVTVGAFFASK
# Bcl-2 = Bcl-2 (Homo sapiens, UniProt P10415); test: Binding affinity against Bcl-2 family anti-apoptotic proteins: Bcl-2
# Bcl-2, sequence (P10415 whole entry, species assumed): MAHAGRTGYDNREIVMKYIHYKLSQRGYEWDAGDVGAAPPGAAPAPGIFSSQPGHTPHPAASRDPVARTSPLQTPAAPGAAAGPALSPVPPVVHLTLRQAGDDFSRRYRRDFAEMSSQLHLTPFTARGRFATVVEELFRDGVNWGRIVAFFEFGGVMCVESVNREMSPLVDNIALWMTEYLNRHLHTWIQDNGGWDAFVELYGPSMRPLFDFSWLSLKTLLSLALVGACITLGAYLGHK
# MV4-11 = test: Cellular activity against leukemia human tumor cell lines: MV4-11; type: cell-based; conditions: AML-derived cell line
# Description: as §1
# A1 = target: T3, A1 (Homo sapiens, UniProt Q16548); test: Binding affinity against Bcl-2 family anti-apoptotic proteins: A1
# T3 sequence (Q16548 1-175): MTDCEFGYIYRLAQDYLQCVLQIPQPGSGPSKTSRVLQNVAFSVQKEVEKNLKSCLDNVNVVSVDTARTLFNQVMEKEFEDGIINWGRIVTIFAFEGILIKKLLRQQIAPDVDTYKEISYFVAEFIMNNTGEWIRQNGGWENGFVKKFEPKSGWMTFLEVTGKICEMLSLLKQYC
# K562 = test: Cellular activity against leukemia human tumor cell lines: K562; type: cell-based; conditions: human CML-derived cell line
# Description: as §1
# MEF WT cells = test: Cell death in wild-type MEF cells; type: cell-based, mouse
# Description: (§2) It is known that apoptotic effectors Bak and Bax can be suppressed by multidomain anti-apoptotic proteins such as Mcl-1. To interrogate the mechanism of action, the activity of several novel Mcl-1 inhibitors were evaluated in mouse embryonic fibroblast (MEF) cells that included wild-type (WT) as well as cells deficient in Bax/Bak (DKO).
# MEF DKO cells = test: Cell death in Bax/Bak deficient (DKO) MEF cells; type: cell-based, mouse
# Description: as §2
# Mcl-1 [2] = target: T1, Mcl-1; test: fluorescence polarizing binding assay, binding to Mcl-1; conditions: for IC50: fluorescence polarizing binding assay; for fold decrease of binding affinity to Mcl-1: in comparison with UMI-1033; for binding / inhibition of Mcl-1 compared with UMI-1033, in words: 4-methyl-1-piperazinyl group of UMI-1033 replaced
# Description: FIGS. 1, 2, 3, and 4 show various compounds for Formula I having various R1, R2, R3, R4, R5, R6, R7 and R8 groups, and related structure activity relationship (SAR) for each respective compound (IC50 values were determined with fluorescence polarizing binding assay).
# Mcl-1 [3] = target: T1, Mcl-1; conditions: cited from earlier work
# [4] = target: T4, cellular, endogenous Mcl-1 protein (Homo sapiens, UniProt Q07820); test: Pull-down assay with biotin-labeled Noxa BH3 peptide (BL-Noxa) in 2LMP cell lysate; type: binding
# T4 construct: endogenous in cells; host or cells: 2LMP cancer cell line (lysate)
# T4 sequence (Q07820 whole entry): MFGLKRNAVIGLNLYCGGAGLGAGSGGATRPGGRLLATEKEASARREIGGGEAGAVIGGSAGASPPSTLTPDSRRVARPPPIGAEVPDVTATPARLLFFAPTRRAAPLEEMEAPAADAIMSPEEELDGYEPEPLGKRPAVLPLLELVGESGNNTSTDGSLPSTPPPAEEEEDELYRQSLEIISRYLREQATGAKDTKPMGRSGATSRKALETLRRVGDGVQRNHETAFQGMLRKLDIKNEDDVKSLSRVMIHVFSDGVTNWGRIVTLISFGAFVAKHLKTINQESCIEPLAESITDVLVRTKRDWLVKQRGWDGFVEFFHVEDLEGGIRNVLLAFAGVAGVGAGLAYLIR
# HL-60 cell line = test: Induction of apoptosis in HL-60, flow cytometry with Annexin V and propidium iodide double staining; caspase-3 activation; type: cell-based, human
# Source text: To gain insights into the underlying mechanism of action for the cell growth inhibition of this class Mcl-1 inhibitors, the HL-60 cell line was selected and investigated if apoptosis contributes to the antiproliferative effect. Induction of apoptosis was monitored by flow cytometry using Annexin V and propidium iodide double staining.
# Bcl-xL, sequence (Q07817 whole entry, species assumed): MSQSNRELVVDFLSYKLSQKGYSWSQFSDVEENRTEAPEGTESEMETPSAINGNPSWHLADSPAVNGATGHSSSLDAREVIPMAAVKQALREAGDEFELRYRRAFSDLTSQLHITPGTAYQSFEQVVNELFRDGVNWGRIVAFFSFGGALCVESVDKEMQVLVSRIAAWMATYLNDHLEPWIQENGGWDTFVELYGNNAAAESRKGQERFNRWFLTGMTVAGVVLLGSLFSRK
# T1 sequence (Q07820 whole entry, species assumed): as the sequence (Q07820 whole entry) above
Compound,Ki (Bcl-xL) [µM],Ki (Mcl-1 [1]) [µM],EC50 (HL-60) [µM],Ki (Bcl-w) [µM],Ki (Bcl-2) [µM],EC50 (MV4-11) [µM],Ki (A1) [µM],EC50 (K562) [µM],other results
CCOC(=O)c1c(C)oc2c1c(C(c1ccncc1)N1CCN(C)CC1)c(O)c1ccccc12 (stereo not drawn) [UMI-1033],> 30,0.02,11.3,> 30,16.7,7.05,> 25,> 30,–
COC(=O)c1c(C)oc2c1c(C(c1ccncc1)N1CCOCC1)c(O)c1ccccc12 (stereo not drawn) [UMI-1036],–,–,16.2,–,–,8.22,–,> 30,cell death in MEF WT (MEF WT cells): induced cell death; cell death in MEF DKO (MEF DKO cells): not in MEF DKO cells
CCOC(=O)c1c(C)oc2c1c(C(c1ccncc1)N1CCc3ccccc3C1)c(O)c1ccccc12 (stereo not drawn) [UMI-1011],–,–,–,–,–,–,–,–,IC50 (Mcl-1 [2]): 0.19 µM; fold decrease of binding affinity to Mcl-1 (Mcl-1 [2]): 3 fold
CN(C)CC[C@H](CSc1ccccc1)Nc1ccc(S(=O)(=O)NC(=O)c2ccc(N3CCN(Cc4ccccc4-c4ccc(Cl)cc4)CC3)cc2)cc1[N+](=O)[O-] [ABT-737],–,–,–,–,–,–,–,–,binding to Mcl-1 (Mcl-1 [3]): fails to bind
COC(=O)c1c(C)oc2c1c(C(c1ccncc1)N1CCN(C)CC1)c(O)c1ccccc12 (stereo not drawn) [UMI-1035],> 30,0.015,–,28,13.8,–,> 25,–,"EC50 (HL-60; Homo sapiens, HL-60): 12.3 µM; cell death in MEF WT (MEF WT cells): induced cell death; EC50 (MV4-11; Homo sapiens, MV4-11): 6.16 µM; cell death in MEF DKO (MEF DKO cells): not in MEF DKO cells; EC50 (K562; K562): 24.6 µM"
CCOC(=O)c1c(C)oc2c1c(C(c1ccncc1)N1CCOCC1)c(O)c1ccccc12 (stereo not drawn) [UMI-1007],> 30,0.02,16,> 30,> 30,12.8,> 25,–,disruption of the interactions between BL-Noxa and cellular Mcl-1 [4]: effectively disrupted the interactions between BL-Noxa and cellular Mcl-1
CCOC(=O)c1c(C)oc2c1c(C(c1ccnc(Cl)c1)N1CCOCC1)c(O)c1ccccc12 (stereo not drawn) [UMI-1026],> 30,0.03,–,> 30,> 30,–,> 25,–,–
CCOC(=O)c1c(C)oc2c1c(C(c1ccc(F)cc1)N1CCN(C)CC1)c(O)c1ccccc12 (stereo not drawn) [UMI-118],–,–,–,–,–,–,–,–,IC50 (Mcl-1 [2]): 0.19 µM; fold decrease of binding affinity to Mcl-1 (Mcl-1 [2]): 3 fold
CCOC(=O)c1c(C)oc2c1c(C(c1cccc(F)c1)N1CCN(C)CC1)c(O)c1ccccc12 (stereo not drawn) [UMI-1003],–,–,–,–,–,–,–,–,IC50 (Mcl-1 [2]): 0.2 µM
CCOC(=O)CN1CCN(C(c2ccncc2)c2c(O)c3ccccc3c3oc(C)c(C(=O)OCC)c23)CC1 (stereo not drawn) [UMI-1042],–,–,14.7,–,–,10.1,–,> 30,cell death in MEF WT (MEF WT cells): induced cell death; cell death in MEF DKO (MEF DKO cells): not in MEF DKO cells
CCOC(=O)c1c(C)oc2c1c(C(c1ccncc1)N1CCN(CC)CC1)c(O)c1ccccc12 (stereo not drawn) [UMI-1008],–,–,–,–,–,–,–,–,"binding / inhibition of Mcl-1 compared with UMI-1033, in words (Mcl-1 [2]): kept same"
CCOC(=O)c1c(C)oc2c1c(C(c1ccncc1)N1CCN(C(C)C)CC1)c(O)c1ccccc12 (stereo not drawn) [UMI-1009],> 30,0.015,3.98,> 30,> 30,7.15,> 25,> 30,"binding / inhibition of Mcl-1 compared with UMI-1033, in words (Mcl-1 [2]): kept same; caspase-3 activation (HL-60 cell line; HL-60): activation of caspase-3; induction of apoptosis (HL-60 cell line; HL-60, 5 μM): 37%; induction of apoptosis (HL-60 cell line; HL-60, 10 μM): 57%"
